Reference: PubChem BioAssay AID1745844 (Carcinogenic Potency Database (CPDB), 2022)
Calls of active or inactive are those of the source. The rule behind the calls is not given here.

Test system: rodent lifetime carcinogenesis bioassay, tumor incidence TD50
Assay: chronic cancer bioassays in animals – CPDB, compiled studies (AID 1745844)
Conditions: study length 104 weeks

In the case of `Cc1ccc(S(=O)(=O)Oc2ccc(N=Nc3ccc(-c4ccc(N=Nc5c(O)ccc6cc(S(=O)(=O)O)cc(S(=O)(=O)O)c56)c(C)c4)cc3C)cc2)cc1`, the TD50 (rat, strain Fischer 344, females, in drinking water, site: Zymbal's gland, lesion: adenoma + carcinoma, dosed 98 weeks) is reported as 15.6 mg/kg/day, the TD50 (rat, strain Fischer 344, females, in drinking water, site: Zymbal's gland, lesion: adenoma, dosed 98 weeks) is reported as 65.4 mg/kg/day and the TD50 (rat, strain Fischer 344, females, in drinking water, site: Zymbal's gland, lesion: carcinoma, dosed 98 weeks) is reported as 18 mg/kg/day. The TD50 (rat, strain Fischer 344, females, in drinking water, site: adrenal medulla, lesion: pheochromocytoma, benign, dosed 98 weeks) was 38.3 mg/kg/day, the TD50 (rat, strain Fischer 344, females, in drinking water, site: adrenal medulla, lesion: pheochromocytoma, malignant + pheochromocytoma, benign, dosed 98 weeks) was 31.6 mg/kg/day and the TD50 (rat, strain Fischer 344, females, in drinking water, site: any site (literature study), lesion: several types, types named in the paper, dosed 98 weeks) was 2.31 mg/kg/day. The TD50 (rat, strain Fischer 344, females, in drinking water, site: clitoral gland + colon + duodenum + jejunum + liver + lung + pharynx + rectum + skin + tongue + Zymbal's gland, lesion: adenoma + adenoma, bilateral + carcinoma + carcinoma, bilateral + adenomatous polyp + mucinous cystadenocarcinoma + hepatocellular c, dosed 98 weeks) was 3.11 mg/kg/day, the TD50 (rat, strain Fischer 344, females, in drinking water, site: clitoral gland, lesion: adenoma + adenoma, bilateral + carcinoma + carcinoma, bilateral, dosed 98 weeks) was 4.75 mg/kg/day and the TD50 (rat, strain Fischer 344, females, in drinking water, site: clitoral gland, lesion: adenoma + adenoma, bilateral, dosed 98 weeks) was 11.9 mg/kg/day. The TD50 (rat, strain Fischer 344, females, in drinking water, site: clitoral gland, lesion: carcinoma + carcinoma, bilateral, dosed 98 weeks) was 8.97 mg/kg/day, the TD50 (rat, strain Fischer 344, females, in drinking water, site: colon + rectum, lesion: adenomatous polyp + mucinous cystadenocarcinoma, dosed 98 weeks) was 136 mg/kg/day and the TD50 (rat, strain Fischer 344, females, in drinking water, site: duodenum + jejunum, lesion: adenomatous polyp + mucinous cystadenocarcinoma, dosed 98 weeks) was 213 mg/kg/day. For the same compound, the TD50 (rat, strain Fischer 344, females, in drinking water, site: liver, lesion: hepatocellular adenoma + hepatocellular carcinoma + neoplastic nodule, dosed 98 weeks) was 14.2 mg/kg/day, the TD50 (rat, strain Fischer 344, females, in drinking water, site: liver, lesion: hepatocellular carcinoma + neoplastic nodule, dosed 98 weeks) was 14.2 mg/kg/day and the TD50 (rat, strain Fischer 344, females, in drinking water, site: liver, lesion: hepatocellular carcinoma, dosed 98 weeks) was 42.5 mg/kg/day. The TD50 (rat, strain Fischer 344, females, in drinking water, site: liver, lesion: neoplastic nodule, dosed 98 weeks) was 18 mg/kg/day, the TD50 (rat, strain Fischer 344, females, in drinking water, site: lung, lesion: alveolar/bronchiolar adenoma + alveolar/bronchiolar carcinoma, dosed 98 weeks) was 23.6 mg/kg/day and the TD50 (rat, strain Fischer 344, females, in drinking water, site: lung, lesion: alveolar/bronchiolar adenoma, dosed 98 weeks) was 26.3 mg/kg/day. For the same compound, the TD50 (rat, strain Fischer 344, females, in drinking water, site: mammary gland, lesion: adenocarcinoma, dosed 98 weeks) was 40.6 mg/kg/day, the TD50 (rat, strain Fischer 344, females, in drinking water, site: mammary gland, lesion: adenoma, dosed 98 weeks) was 67 mg/kg/day and the TD50 (rat, strain Fischer 344, females, in drinking water, site: mammary gland, lesion: fibroadenoma, dosed 98 weeks) was 11.4 mg/kg/day. For the same compound, the TD50 (rat, strain Fischer 344, females, in drinking water, site: multiple organs, lesion: leukemia + mononuclear-cell leukemia, dosed 98 weeks) was 9.44 mg/kg/day, the TD50 (rat, strain Fischer 344, females, in drinking water, site: pharynx + tongue, lesion: squamous-cell carcinoma + squamous-cell papilloma, dosed 98 weeks) was 31.4 mg/kg/day and the TD50 (rat, strain Fischer 344, females, in drinking water, site: pharynx + tongue, lesion: squamous-cell carcinoma, dosed 98 weeks) was 227 mg/kg/day. It also gave a TD50 (rat, strain Fischer 344, females, in drinking water, site: pharynx + tongue, lesion: squamous-cell papilloma, dosed 98 weeks) of 36.5 mg/kg/day, a TD50 (rat, strain Fischer 344, females, in drinking water, site: pharynx, lesion: squamous-cell papilloma, dosed 98 weeks) of 72.4 mg/kg/day and a TD50 (rat, strain Fischer 344, females, in drinking water, site: pituitary gland, lesion: pars distalis adenoma, dosed 98 weeks) of 11.1 mg/kg/day. For the same compound, the TD50 (rat, strain Fischer 344, females, in drinking water, site: skin, lesion: basal-cell adenoma + basal-cell carcinoma, dosed 98 weeks) was 21.9 mg/kg/day, the TD50 (rat, strain Fischer 344, females, in drinking water, site: skin, lesion: basal-cell adenoma, dosed 98 weeks) was 28.2 mg/kg/day and the TD50 (rat, strain Fischer 344, females, in drinking water, site: skin, lesion: squamous-cell carcinoma + squamous-cell papilloma, dosed 98 weeks) was 49.7 mg/kg/day. For the same compound, the TD50 (rat, strain Fischer 344, females, in drinking water, site: skin, lesion: squamous-cell carcinoma, dosed 98 weeks) was 57.3 mg/kg/day, the TD50 (rat, strain Fischer 344, females, in drinking water, site: subcutaneous tissue, lesion: fibrosarcoma + fibroma, dosed 98 weeks) was 78.2 mg/kg/day and the TD50 (rat, strain Fischer 344, females, in drinking water, site: thyroid gland, lesion: c-cell adenoma, dosed 98 weeks) was 48.7 mg/kg/day. It also gave a TD50 (rat, strain Fischer 344, females, in drinking water, site: thyroid gland, lesion: follicular-cell adenoma + follicular-cell carcinoma, dosed 98 weeks) of 28.8 mg/kg/day, a TD50 (rat, strain Fischer 344, females, in drinking water, site: thyroid gland, lesion: follicular-cell adenoma, dosed 98 weeks) of 53.5 mg/kg/day and a TD50 (rat, strain Fischer 344, females, in drinking water, site: thyroid gland, lesion: follicular-cell carcinoma, dosed 98 weeks) of 68.9 mg/kg/day. For the same compound, the TD50 (rat, strain Fischer 344, females, in drinking water, site: tongue, lesion: squamous-cell carcinoma + squamous-cell papilloma, dosed 98 weeks) was 65.7 mg/kg/day, the TD50 (rat, strain Fischer 344, females, in drinking water, site: tongue, lesion: squamous-cell papilloma, dosed 98 weeks) was 75 mg/kg/day and the TD50 (rat, strain Fischer 344, females, in drinking water, site: uterus, lesion: endometrial stromal polyp + endometrial stromal sarcoma, dosed 98 weeks) was 16.4 mg/kg/day. For the same compound, the TD50 (rat, strain Fischer 344, females, in drinking water, site: uterus, lesion: endometrial stromal polyp, dosed 98 weeks) was 20.1 mg/kg/day, the TD50 (rat, strain Fischer 344, males, in drinking water, site: Zymbal's gland, lesion: adenoma + carcinoma, dosed 104 weeks) was 27 mg/kg/day and the TD50 (rat, strain Fischer 344, males, in drinking water, site: Zymbal's gland, lesion: carcinoma, dosed 104 weeks) was 29.8 mg/kg/day. For the same compound, the TD50 (rat, strain Fischer 344, males, in drinking water, site: adrenal medulla, lesion: pheochromocytoma benign, bilateral + pheochromocytoma, malignant + pheochromocytoma, benign, dosed 104 weeks) was 5.94 mg/kg/day, the TD50 (rat, strain Fischer 344, males, in drinking water, site: adrenal medulla, lesion: pheochromocytoma, benign, dosed 104 weeks) was 6.69 mg/kg/day and the TD50 (rat, strain Fischer 344, males, in drinking water, site: any site (literature study), lesion: several types, types named in the paper, dosed 104 weeks) was 3.23 mg/kg/day. For the same compound, the TD50 (rat, strain Fischer 344, males, in drinking water, site: liver + skin + Zymbal's gland, lesion: hepatocellular carcinoma + neoplastic nodule + basal-cell adenoma + basal-cell carcinoma + keratoacanthoma + sebaceous gland carci, dosed 104 weeks) was 2.8 mg/kg/day, the TD50 (rat, strain Fischer 344, males, in drinking water, site: liver, lesion: hepatocellular adenoma + hepatocellular carcinoma + neoplastic nodule, dosed 104 weeks) was 7.02 mg/kg/day and the TD50 (rat, strain Fischer 344, males, in drinking water, site: liver, lesion: hepatocellular carcinoma + neoplastic nodule, dosed 104 weeks) was 7.02 mg/kg/day. The TD50 (rat, strain Fischer 344, males, in drinking water, site: liver, lesion: hepatocellular carcinoma, dosed 104 weeks) was 20.2 mg/kg/day, the TD50 (rat, strain Fischer 344, males, in drinking water, site: liver, lesion: neoplastic nodule, dosed 104 weeks) was 10.4 mg/kg/day and the TD50 (rat, strain Fischer 344, males, in drinking water, site: lung, lesion: alveolar/bronchiolar adenoma + alveolar/bronchiolar carcinoma, dosed 104 weeks) was 47.2 mg/kg/day. The TD50 (rat, strain Fischer 344, males, in drinking water, site: lung, lesion: alveolar/bronchiolar adenoma, dosed 104 weeks) was 39 mg/kg/day, the TD50 (rat, strain Fischer 344, males, in drinking water, site: multiple organs, lesion: mononuclear-cell leukemia, dosed 104 weeks) was 12.3 mg/kg/day and the TD50 (rat, strain Fischer 344, males, in drinking water, site: pharynx + tongue, lesion: squamous-cell papilloma, dosed 104 weeks) was 71 mg/kg/day. It also gave a TD50 (rat, strain Fischer 344, males, in drinking water, site: skin, lesion: basal-cell adenoma + basal-cell carcinoma, dosed 104 weeks) of 3.3 mg/kg/day, a TD50 (rat, strain Fischer 344, males, in drinking water, site: skin, lesion: basal-cell adenoma, dosed 104 weeks) of 3.58 mg/kg/day and a TD50 (rat, strain Fischer 344, males, in drinking water, site: skin, lesion: basal-cell carcinoma, dosed 104 weeks) of 22.8 mg/kg/day. The TD50 (rat, strain Fischer 344, males, in drinking water, site: skin, lesion: keratoacanthoma, dosed 104 weeks) was 20.4 mg/kg/day, the TD50 (rat, strain Fischer 344, males, in drinking water, site: skin, lesion: sebaceous gland carcinoma + sebaceous adenoma, dosed 104 weeks) was 23.4 mg/kg/day and the TD50 (rat, strain Fischer 344, males, in drinking water, site: skin, lesion: squamous-cell carcinoma + squamous-cell papilloma, dosed 104 weeks) was 12.7 mg/kg/day. For the same compound, the TD50 (rat, strain Fischer 344, males, in drinking water, site: skin, lesion: squamous-cell carcinoma, dosed 104 weeks) was 16.2 mg/kg/day and the TD50 (rat, strain Fischer 344, males, in drinking water, site: testis, lesion: interstitial-cell adenoma, bilateral + interstitial-cell adenoma, dosed 104 weeks) was 3.39 mg/kg/day.
With `Cc1cc(O)c(C(C)(C)C)cc1Sc1cc(C(C)(C)C)c(O)cc1C` the TD50 (mouse, strain B6C3F1, females, in feed, site: any site (literature study), lesion: several types, types named in the paper, dosed 104 weeks) was 484 mg/kg/day (inactive), the TD50 (mouse, strain B6C3F1, females, in feed, site: lung, lesion: alveolar/bronchiolar adenoma + alveolar/bronchiolar carcinoma, dosed 104 weeks) was 2020 mg/kg/day and the carcinogen call (mouse, strain B6C3F1, males, in feed, site: any site (literature study), lesion: several types, types named in the paper, dosed 104 weeks) was “negative (inactive)”. It also gave a TD50 (rat, strain Fischer 344, females, in feed, site: any site (literature study), lesion: several types, types named in the paper, dosed 104 weeks) of 196 mg/kg/day, a TD50 (rat, strain Fischer 344, females, in feed, site: liver, lesion: hepatocellular adenoma + hepatoblastoma + hepatocellular carcinoma, dosed 104 weeks) of 3990 mg/kg/day and a TD50 (rat, strain Fischer 344, females, in feed, site: thyroid gland, lesion: c-cell adenoma + c-cell adenoma, bilateral, dosed 104 weeks) of 361 mg/kg/day. For the same compound, the TD50 (rat, strain Fischer 344, females, in feed, site: thyroid gland, lesion: c-cell adenoma + c-cell carcinoma + c-cell adenoma, bilateral, dosed 104 weeks) was 325 mg/kg/day, the TD50 (rat, strain Fischer 344, females, in feed, site: uterus, lesion: endometrial stromal polyp + endometrial stromal sarcoma, dosed 104 weeks) was 262 mg/kg/day (inactive) and the TD50 (rat, strain Fischer 344, females, in feed, site: uterus, lesion: endometrial stromal polyp, dosed 104 weeks) was 286 mg/kg/day. The TD50 (rat, strain Fischer 344, males, in feed, site: any site (literature study), lesion: several types, types named in the paper, dosed 104 weeks) was 449 mg/kg/day (inactive) and the TD50 (rat, strain Fischer 344, males, in feed, site: liver, lesion: hepatocellular adenoma + hepatoblastoma + hepatocellular carcinoma, dosed 104 weeks) was 324 mg/kg/day.
For `O=C(O)C1C2C=CC(C2)C1(C(=O)O)[N+](=O)[O-]` (stereo not given), the TD50 (mouse, strain B6C3F1, females, in drinking water, site: any site (literature study), lesion: several types, types named in the paper, dosed 104 weeks) was 169 mg/kg/day, the TD50 (mouse, strain B6C3F1, females, in drinking water, site: liver, lesion: hemangioma, dosed 104 weeks) was 1240 mg/kg/day and the TD50 (mouse, strain B6C3F1, females, in drinking water, site: liver, lesion: hyperplastic nodule, dosed 104 weeks) was 3190 mg/kg/day. For the same compound, the TD50 (mouse, strain B6C3F1, females, in drinking water, site: lung, lesion: papillary tumor, dosed 104 weeks) was 5650 mg/kg/day, the TD50 (mouse, strain B6C3F1, males, in drinking water, site: any site (literature study), lesion: several types, types named in the paper, dosed 104 weeks) was 153 mg/kg/day and the TD50 (mouse, strain B6C3F1, males, in drinking water, site: liver, lesion: hepatoma, dosed 104 weeks) was 2640 mg/kg/day. The TD50 (mouse, strain B6C3F1, males, in drinking water, site: lung, lesion: papillary tumor, dosed 104 weeks) was 348 mg/kg/day.
